Laboratory results as given in ChEMBL document CHEMBL6153025, “Multidrug-resistant bacteria quorum-sensing inhibitors: A particular focus on Pseudomonasaeruginosa” (Eur J Med Chem, 2025).
One block for each compound: values may come before it.

Legend:
Pseudomonas aeruginosa [1] = assay: Antivirulence activity against Pseudomonas aeruginosa PAO1 assessed as reduction in pyocyanin level at 10 uM relative to control; format: functional; design: scale not given: the % may be the effect or the level left
Pseudomonas aeruginosa [2] = assay: Antibacterial activity against Pseudomonas aeruginosa; format: functional
Bacillus pumilus = assay: Antibacterial activity against Bacillus pumilus; format: functional
Staphylococcus aureus [3] = assay: Antibacterial activity against Methicillin-sensitive Staphylococcus aureus; format: functional
Escherichia coli = assay: Antibacterial activity against Escherichia coli; format: functional
Bacillus subtilis = assay: Antibacterial activity against Bacillus subtilis; format: functional
[4] = biological target: T1, Transcriptional activator protein LasR (Pseudomonas aeruginosa (strain ATCC 15692 / PAO1 / 1C / PRS 101 / LMG12228)) (UniProt P25084); assay: Inhibition of LasR-mediated quorum sensing system in Pseudomonas aeruginosa PAO1 at 128 ug/ml relative to control; conditions: dose 128.0 µg/ml
T1 sequence (whole entry): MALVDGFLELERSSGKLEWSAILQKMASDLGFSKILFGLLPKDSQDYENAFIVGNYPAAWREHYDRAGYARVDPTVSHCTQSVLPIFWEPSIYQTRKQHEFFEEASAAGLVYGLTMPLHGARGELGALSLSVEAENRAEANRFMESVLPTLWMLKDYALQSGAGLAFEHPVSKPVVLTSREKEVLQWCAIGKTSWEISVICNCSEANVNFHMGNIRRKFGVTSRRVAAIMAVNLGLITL

[5] = Inhibition of quorum sensing system in Pseudomonas aeruginosa PAO1
Pseudomonas aeruginosa [6] = assay: Antivirulence activity in Pseudomonas aeruginosa PAO1 assessed as reduction in pyocyanin production at 10 uM incubated for 24 hrs by absorbance based analysis relative to control; format: functional; design: scale not given: the % may be the effect or the level left
Pseudomonas aeruginosa [7] = assay: Antibacterial activity against Pseudomonas aeruginosa ATCC 15442 assessed as reduction in bacterial cell growth incubated for 24 hrs by two fold serial microdilution method; format: functional
Pseudomonas aeruginosa [8] = assay: Antibiofilm activity against Pseudomonas aeruginosa PAO1 assessed as inhibition of biofilm formation at 100 uM relative to control; format: functional; design: scale not given: the % may be the effect or the level left
Staphylococcus aureus [9] = assay: Antibacterial activity against Methicillin-resistant Staphylococcus aureus; format: functional
Pseudomonas aeruginosa [10] = assay: Antibacterial activity against Pseudomonas aeruginosa ATCC 27853 assessed as bacterial growth inhibition by agar diffusion assay; format: functional
Pseudomonas aeruginosa [11] = assay: Antibiofilm activity against Pseudomonas aeruginosa PA14 assessed as reduction in biofilm biomass production at 18 ug/ml relative to control; format: functional; design: scale not given: the % may be the effect or the level left; conditions: dose 18 µg/ml
Pseudomonas aeruginosa [12] = assay: Antibacterial activity against Pseudomonas aeruginosa PAO1-L; format: functional, organism-based
[13] = Inhibition of quorum sensing system in Pseudomonas aeruginosa PAO1 expressing lasB-gfp
Pseudomonas aeruginosa [14] = assay: Anti-virulence activity against Pseudomonas aeruginosa PAO1-L assessed as reduction in pyocyanin production at 10 uM incubated for 24 hrs by absorbance based analysis relative to control; format: functional; design: scale not given: the % may be the effect or the level left

SMILES: Cc1ccc(OCCCCCC(=O)NN2C(=O)CN(c3ccccc3O)C2=O)cc1
Activity (Pseudomonas aeruginosa [1]): 61%
MIC (Pseudomonas aeruginosa [2]): > 512 µg/mL
MIC (Bacillus pumilus): > 512 µg/mL
MIC (Staphylococcus aureus [3]): > 512 µg/mL
MIC (Escherichia coli): > 512 µg/mL
MIC (Bacillus subtilis): > 512 µg/mL

inhibition [4]: 78.8%
SMILES: CN1CCN(CC(=O)Oc2cccc([N+](=O)[O-])c2)CC1

inhibition [4]: 82.3%
SMILES: O=C(CN1CCOCC1)Oc1ccc([N+](=O)[O-])cc1

IC50 [5]: 26.5 µM
SMILES: O=C(CNc1ccc(C(=O)/C=C/c2ccc(Br)cc2F)cc1)N[C@@H]1CCOC1=O

SMILES: O=[N+]([O-])c1ccc(CNCCCCCCCCNc2ccnc3cc(Cl)ccc23)cc1
Activity (Pseudomonas aeruginosa [6]): 97%
MIC (Pseudomonas aeruginosa [7]): > 2 µM

SMILES: COc1ccc(OCCCCCC(=O)NN2C(=O)CN(c3ccccc3O)C2=O)cc1
Activity (Pseudomonas aeruginosa [1]): 61%
MIC (Pseudomonas aeruginosa [2]): > 512 µg/mL
MIC (Bacillus pumilus): > 512 µg/mL
MIC (Staphylococcus aureus [3]): > 512 µg/mL
MIC (Escherichia coli): > 512 µg/mL
MIC (Bacillus subtilis): > 512 µg/mL

SMILES: O=C(CCCCCOc1cccc(C(F)(F)F)c1)NN1C(=O)CN(c2ccccc2O)C1=O
Activity (Pseudomonas aeruginosa [1]): 38.62%
MIC (Bacillus pumilus): > 512 µg/mL
MIC (Staphylococcus aureus [3]): > 512 µg/mL
MIC (Escherichia coli): > 512 µg/mL
MIC (Bacillus subtilis): > 512 µg/mL

inhibition [4]: 50.2%
SMILES: CC(C)(C)c1cccc(OC(=O)CN2CCOCC2)c1

SMILES: O=c1c(O[C@@H]2O[C@H](CO)[C@H](O)[C@H](O)[C@H]2O)c(-c2ccc(O)c(O)c2)oc2cc(O)cc(O)c12 [HYPEROSIDE]
Activity (Pseudomonas aeruginosa [8]): 18%

SMILES: O=C(CCCCCOc1ccc(Cl)cc1)NNC(=O)Cn1c(=O)oc2ncccc21
MIC (Pseudomonas aeruginosa [2]): > 512 µg/mL
MIC (Bacillus pumilus): > 512 µg/mL
MIC (Staphylococcus aureus [3]): > 512 µg/mL
MIC (Staphylococcus aureus [9]): > 512 µg/mL
MIC (Escherichia coli): > 512 µg/mL
MIC (Bacillus subtilis): > 512 µg/mL

inhibition [4]: 92.3%
SMILES: O=C(OCCN1CCOCC1)c1cccc([N+](=O)[O-])c1

inhibition [4]: 50.2%
SMILES: O=C(Oc1cccc([N+](=O)[O-])c1)C(=O)N1CCOCC1

MIC (Pseudomonas aeruginosa [10]): > 128 µg/mL
SMILES: COc1ccccc1C(=O)CSc1ccc2ccccc2n1

SMILES: COc1cc(/C=C/C2C(C)=NC(C)=CN2C)c(C(=O)O)c(O)c1CC=C(C)C (stereo unspecified)
Activity (Pseudomonas aeruginosa [11]): 59.68%

IC50 (Pseudomonas aeruginosa [12]): 6.4 µM
SMILES: N#CCc1ccc(OCC(O)Cn2cnc3ccc(Cl)cc3c2=O)cc1F (stereo unspecified)

SMILES: COc1cc(/C=C/c2cn(Cc3ccccc3)nn2)c(C(=O)O)c(O)c1CC=C(C)C
Activity (Pseudomonas aeruginosa [11]): 51.38%

SMILES: O=C(CCCCCOc1ccc([N+](=O)[O-])cc1)NNC(=O)Cn1c(=O)oc2ncccc21
MIC (Pseudomonas aeruginosa [2]): > 512 µg/mL
MIC (Bacillus pumilus): > 512 µg/mL
MIC (Staphylococcus aureus [3]): > 512 µg/mL
MIC (Staphylococcus aureus [9]): > 512 µg/mL
MIC (Escherichia coli): > 512 µg/mL
MIC (Bacillus subtilis): > 512 µg/mL

SMILES: O=c1c(O[C@@H]2O[C@H](CO)[C@@H](O)[C@H](O)[C@H]2O)c(-c2ccc(O)c(O)c2)oc2cc(O)cc(O)c12 [ISOQUERCETIN]
Activity (Pseudomonas aeruginosa [8]): 18%

SMILES: Clc1ccc2c(NCCCCCCCCNCc3cc4ccccc4o3)ccnc2c1
Activity (Pseudomonas aeruginosa [6]): 97%
MIC (Pseudomonas aeruginosa [7]): > 2 µM

inhibition [4]: 50.2%
SMILES: O=C(CC1CCC(F)CC1)Oc1cccc([N+](=O)[O-])c1 (stereo unspecified)

inhibition [4]: 61.6%
SMILES: O=C(CN1CCOCC1)Oc1cccc([N+](=O)[O-])c1

IC50 [5]: 46.8 µM
SMILES: O=C(CNc1ccc(C(=O)/C=C/c2ccc(Br)cc2)cc1)N[C@@H]1CCOC1=O

SMILES: COc1cc(O)c(C(=O)O)c(/C=C/c2ccc(S(F)(F)(F)(F)F)cc2)c1
Activity (Pseudomonas aeruginosa [11]): 18.95%

SMILES: N#CCc1ccc(OC[C@@H](O)Cn2cnc3ccc(Cl)cc3c2=O)cc1
IC50 [13]: 7 µM
Activity (Pseudomonas aeruginosa [14]): 95%
IC50 (Pseudomonas aeruginosa [12]): 4.3 µM

SMILES: COc1cc(/C=C/c2cncs2)c(C(=O)O)c(O)c1CC=C(C)C
Activity (Pseudomonas aeruginosa [11]): 21.06%

IC50 [5]: 56.5 µM
SMILES: COc1cccc(/C=C/C(=O)c2ccc(NCC(=O)N[C@@H]3CCOC3=O)cc2)c1

IC50 [5]: 46.8 µM
SMILES: O=C(CNc1ccc(C(=O)/C=C/c2ccc(Cl)cc2)cc1)N[C@@H]1CCOC1=O

SMILES: O=C(CCCCCOc1ccc(F)cc1)NN1C(=O)CN(c2ccccc2O)C1=O
Activity (Pseudomonas aeruginosa [1]): 61%
MIC (Pseudomonas aeruginosa [2]): > 512 µg/mL
MIC (Bacillus pumilus): > 512 µg/mL
MIC (Staphylococcus aureus [3]): > 512 µg/mL
MIC (Escherichia coli): > 512 µg/mL
MIC (Bacillus subtilis): > 512 µg/mL

SMILES: COc1cc(O)c(C(=O)O)c(CCc2ccc(S(F)(F)(F)(F)F)cc2)c1
Activity (Pseudomonas aeruginosa [11]): 19.48%

MIC (Pseudomonas aeruginosa [10]): > 128 µg/mL
SMILES: O=C(CSc1ccc2ccccc2n1)c1ccc2c(c1)OCCO2

SMILES: CC(=O)NCCCCCCCCNc1ccnc2cc(Cl)ccc12
Activity (Pseudomonas aeruginosa [6]): 42%
MIC (Pseudomonas aeruginosa [7]): > 2 µM

IC50 [13]: 2.4 µM
IC50 (Pseudomonas aeruginosa [12]): 4.3 µM
SMILES: N#CCc1ccc(OCC(N)Cn2cnc3ccc(Cl)cc3c2=O)cc1 (stereo unspecified)

IC50 [5]: 67.8 µM
SMILES: O=C(CNc1ccc(C(=O)/C=C/c2ccccc2Cl)cc1)N[C@@H]1CCOC1=O

SMILES: O=C(CCCCCOc1ccc(C(F)(F)F)cc1)NNC(=O)Cn1c(=O)oc2ncccc21
Activity (Pseudomonas aeruginosa [1]): 53.1%
MIC (Pseudomonas aeruginosa [2]): > 512 µg/mL
MIC (Bacillus pumilus): > 512 µg/mL
MIC (Staphylococcus aureus [3]): > 512 µg/mL
MIC (Staphylococcus aureus [9]): > 512 µg/mL
MIC (Escherichia coli): > 512 µg/mL
MIC (Bacillus subtilis): > 512 µg/mL

inhibition [4]: 50.2%
SMILES: O=C(CN1CCOCC1)Oc1ccccc1[N+](=O)[O-]
